Source: patent US20250235427A1, “5-METHOXY-N,N-[…][…] THE TREATMENT OF SOCIAL/EMOTIONAL […] DETACHMENT” (GH RESEARCH IRELAND LIMITED, priority 2022, published 2025)

Test system: patients with postpartum depression (PPD)
Test: Clinical trial, inhaled 5-MeO-DMT individualized dosing regimen in postpartum depression (one patient so far)
Protocol: The single-arm, open-label clinical trial will involve 15 adult female patients with clinically diagnosed postpartum depression (PPD).
The second dose (12 mg) will only be administered if: • a. […] The 6 mg dose was safe and well-tolerated according to the investigator, • c. Any psychoactive effects (PsE) of the prior dose have subsided, and • d. Pre-dose vital parameters and forced expiratory volume in one second (FEV1) are in normal range, or if outside of the normal range, are not clinically significant according to the investigator. • 3. Similarly, a third dose (18 mg) will only be administered if: • a. […] The 12 mg dose was safe and well-tolerated according to the investigator, and • c. Any PsE of the prior dose have subsided, and • d. Pre-dose vital parameters and forced expiratory volume in one second (FEV1) are in normal range, or if outside of the normal range, are not clinically significant according to the investigator.
The patients will be assessed for a peak psychedelic experience (based on a patient-scored visual analogue scale, the PE scale), sedation, and other endpoints after dosing. Follow-up visits are planned for Day 1, and Day 7 after the dosing day.

For `COc1ccc2[nH]cc(CCN(C)C)c2c1` [5-MeO-DMT], the “standard criteria for MADRS response (at least 50% improvement) and MADRS remission (total score equal or less than 10)” value was “fulfilled”, the “tolerability of the inhalation procedure” value was “well tolerated with no inhalation-related adverse events” and the “MADRS Concentration Difficulties improvement” value (2 hr, baseline 0) was 0. For the same compound, the “MADRS Concentration Difficulties score” value (2 hr, baseline 0) was 0, the “MADRS Reduced appetite improvement” value (2 hr, baseline 0) was 0 and the “MADRS Reduced appetite score” value (2 hr, baseline 0) was 0. For the same compound, the “MADRS Suicidal Thoughts improvement” value (2 hr, baseline 0) was 0, the “MADRS Suicidal Thoughts score” value (2 hr, baseline 0) was 0 and the “MADRS Inability to Feel improvement” value (2 hr, baseline 3) was 3. For the same compound, the “MADRS Inability to Feel score” value (2 hr, baseline 3) was 0, the “MADRS Lassitude improvement” value (2 hr, baseline 3) was 3 and the “MADRS Lassitude score” value (2 hr, baseline 3) was 0. For the same compound, the “MADRS Pessimistic Thoughts improvement” value (2 hr, baseline 4) was 4, the “MADRS Pessimistic Thoughts score” value (2 hr, baseline 4) was 0 and the “MADRS Reported sadness improvement” value (2 hr, baseline 4) was 4. For the same compound, the “MADRS Reported sadness score” value (2 hr, baseline 4) was 0, the “MADRS Apparent sadness improvement” value (2 hr, baseline 5) was 5 and the “MADRS Apparent sadness score” value (2 hr, baseline 5) was 0. For the same compound, the “MADRS Inner Tension improvement” value (2 hr, baseline 5) was 5, the “MADRS Inner Tension score” value (2 hr, baseline 5) was 0 and the “MADRS Reduced Sleep improvement” value (2 hr, baseline 5) was 0. The “MADRS Reduced Sleep score” value (2 hr, baseline 5) was 5, the “reported adverse events (cramping left abdominal pain and headache)” value (Day 0) was “mild, short-lasting and resolved spontaneously” and the “MADRS Concentration Difficulties improvement” value (Day 1, baseline 0) was 0. The “MADRS Concentration Difficulties score” value (Day 1, baseline 0) was 0, the “MADRS Reduced appetite improvement” value (Day 1, baseline 0) was 0 and the “MADRS Reduced appetite score” value (Day 1, baseline 0) was 0. The “MADRS Suicidal Thoughts improvement” value (Day 1, baseline 0) was 0, the “MADRS Suicidal Thoughts score” value (Day 1, baseline 0) was 0 and the “BPRS Blunted affect improvement” value (Day 1, baseline 1) was 0. For the same compound, the “BPRS Blunted affect score” value (Day 1, baseline 1) was 1, the “BPRS Conceptual disorganization improvement” value (Day 1, baseline 1) was 0 and the “BPRS Conceptual disorganization score” value (Day 1, baseline 1) was 1. The “BPRS Disorientation improvement” value (Day 1, baseline 1) was 0, the “BPRS Disorientation score” value (Day 1, baseline 1) was 1 and the “BPRS Grandiosity improvement” value (Day 1, baseline 1) was 0. For the same compound, the “BPRS Grandiosity score” value (Day 1, baseline 1) was 1, the “BPRS Hallucinatory behaviour improvement” value (Day 1, baseline 1) was 0 and the “BPRS Hallucinatory behaviour score” value (Day 1, baseline 1) was 1. The “BPRS Hostility improvement” value (Day 1, baseline 1) was 0, the “BPRS Hostility score” value (Day 1, baseline 1) was 1 and the “BPRS Mannerisms and Posturing improvement” value (Day 1, baseline 1) was 0. For the same compound, the “BPRS Mannerisms and Posturing score” value (Day 1, baseline 1) was 1, the “BPRS Motor retardation improvement” value (Day 1, baseline 1) was 0 and the “BPRS Motor retardation score” value (Day 1, baseline 1) was 1. The “BPRS Suspiciousness improvement” value (Day 1, baseline 1) was 0, the “BPRS Suspiciousness score” value (Day 1, baseline 1) was 1 and the “BPRS Uncooperativeness improvement” value (Day 1, baseline 1) was 0. For the same compound, the “BPRS Uncooperativeness score” value (Day 1, baseline 1) was 1, the “BPRS Unusual Thought Content improvement” value (Day 1, baseline 1) was 0 and the “BPRS Unusual Thought Content score” value (Day 1, baseline 1) was 1. The “BPRS Excitement improvement” value (Day 1, baseline 2) was 1, the “BPRS Excitement score” value (Day 1, baseline 2) was 1 and the “MADRS Inability to Feel improvement” value (Day 1, baseline 3) was 3. For the same compound, the “MADRS Inability to Feel score” value (Day 1, baseline 3) was 0, the “MADRS Lassitude improvement” value (Day 1, baseline 3) was 3 and the “MADRS Lassitude score” value (Day 1, baseline 3) was 0. The “MADRS Pessimistic Thoughts improvement” value (Day 1, baseline 4) was 4, the “MADRS Pessimistic Thoughts score” value (Day 1, baseline 4) was 0 and the “MADRS Reported sadness improvement” value (Day 1, baseline 4) was 4. The “MADRS Reported sadness score” value (Day 1, baseline 4) was 0, the “BPRS Emotional withdrawal improvement” value (Day 1, baseline 5) was 4 and the “BPRS Emotional withdrawal score” value (Day 1, baseline 5) was 1. For the same compound, the “MADRS Apparent sadness improvement” value (Day 1, baseline 5) was 5, the “MADRS Apparent sadness score” value (Day 1, baseline 5) was 0 and the “MADRS Inner Tension improvement” value (Day 1, baseline 5) was 5. The “MADRS Inner Tension score” value (Day 1, baseline 5) was 0, the “MADRS Reduced Sleep improvement” value (Day 1, baseline 5) was 5 and the “MADRS Reduced Sleep score” value (Day 1, baseline 5) was 0. The “BPRS Depressive Mood improvement” value (Day 1, baseline 6) was 5, the “BPRS Depressive Mood score” value (Day 1, baseline 6) was 1 and the “BPRS Guilt feelings improvement” value (Day 1, baseline 6) was 5. For the same compound, the “BPRS Guilt feelings score” value (Day 1, baseline 6) was 1, the “BPRS Somatic Concern improvement” value (Day 1, baseline 6) was 5 and the “BPRS Somatic Concern score” value (Day 1, baseline 6) was 1. For the same compound, the “BPRS Tension improvement” value (Day 1, baseline 6) was 5, the “BPRS Tension score” value (Day 1, baseline 6) was 1 and the “BPRS Anxiety improvement” value (Day 1, baseline 7) was 6. For the same compound, the “BPRS Anxiety score” value (Day 1, baseline 7) was 1, the “BIMF item 2 (I feel rested) score” value (Day 7, Day 0 score 0) was 2 and the “BIMF item 19 (As time goes on, I am getting better at taking care of my baby) score” value (Day 7, Day 0 score 0) was 1. For the same compound, the “BIMF item 18 (Anxiety or worry often interferes with my mothering ability) score” value (Day 7, Day 0 score 2) was 5, the “BIMF item 13 (I am taking good care of my physical needs) score” value (Day 7, Day 0 score 4) was 5 and the “BIMF item 4 (My baby and I understand each other) score” value (Day 7, Day 0 score 5) was 5. The “BIMF item 5 (I am able to relax and enjoy time with my baby) score” value (Day 7, Day 0 score 5) was 6, the “BIMF item 9 (I am getting enough encouragement from other people) score” value (Day 7, Day 0 score 5) was 6 and the “BIMF item 10 (I trust my own feelings (instincts) when it comes to taking care of my baby) score” value (Day 7, Day 0 score 5) was 6. For the same compound, the “BIMF item 15 (My baby and I are getting into a routine) score” value (Day 7, Day 0 score 5) was 6, the “BIMF item 17 (I am able to take care of my baby and my other responsibilities) score” value (Day 7, Day 0 score 5) was 5 and the “BIMF item 1 (I am a good mother) score” value (Day 7, Day 0 score 6) was 6. For the same compound, the “BIMF item 3 (I am comfortable with the way I've chosen to feed my baby) score” value (Day 7, Day 0 score 6) was 6, the “BIMF item 6 (There are people in my life that I can trust to care for my baby when I need a break) score” value (Day 7, Day 0 score 6) was 6 and the “BIMF item 8 (I am getting enough adult interaction) score” value (Day 7, Day 0 score 6) was 6. The “BIMF item 12 (I am taking good care of my baby's physical needs) score” value (Day 7, Day 0 score 6) was 6, the “BIMF item 14 (I make good decisions about my baby's health and well being) score” value (Day 7, Day 0 score 6) was 6 and the “BIMF item 20 (I am satisfied with the job I am doing as a new mother) score” value (Day 7, Day 0 score 6) was 5. The “MADRS Concentration Difficulties improvement” value (Day 7, baseline 0) was 0, the “MADRS Concentration Difficulties score” value (Day 7, baseline 0) was 0 and the “MADRS Reduced appetite improvement” value (Day 7, baseline 0) was 0. The “MADRS Reduced appetite score” value (Day 7, baseline 0) was 0, the “MADRS Suicidal Thoughts improvement” value (Day 7, baseline 0) was 0 and the “MADRS Suicidal Thoughts score” value (Day 7, baseline 0) was 0. The “BPRS Blunted affect improvement” value (Day 7, baseline 1) was 0, the “BPRS Blunted affect score” value (Day 7, baseline 1) was 1 and the “BPRS Conceptual disorganization improvement” value (Day 7, baseline 1) was 0. For the same compound, the “BPRS Conceptual disorganization score” value (Day 7, baseline 1) was 1 and the “BPRS Disorientation improvement” value (Day 7, baseline 1) was 0.
